# Values of other authors in paper PMC4875935 (Clinical Pharmacokinetics, 2015).
# Values joined by “and” are separate entries in the source; they are usually repeats but may differ in a detail not shown here. Identical values can stand only once.
# How the values were obtained:
# Candida albicans = conditions: neutropenic mouse model of disseminated Candida albicans
# [1] = not given; remark: listed apart in the source
structure (smiles),measurement,setting,value
CC[C@H](C)C[C@H](C)CCCCCCCCC(=O)N[C@H]1C[C@@H](O)[C@@H](NCCN)NC(=O)[C@@H]2[C@@H](O)CCN2C(=O)[C@H]([C@H](O)CCN)NC(=O)[C@H]([C@H](O)[C@@H](O)c2ccc(O)cc2)NC(=O)[C@@H]2C[C@@H](O)CN2C(=O)[C@H]([C@@H](C)O)NC1=O [caspofungin],epidemiological cut-off value,C. albicans,0.12 µg/mL
same,mode MIC,C. albicans,0.03 µg/mL
same,tolerability,"invasive candidiasis; 150 mg daily, patients with invasive candidiasis",well-tolerated
same,clinical and mycological cure at the end of therapy,invasive candidiasis; reported response rates in the literature,72–73%
same,AUC/MIC ratio associated with a 1-log kill/24 h,Candida albicans,865
same,CL,earlier studies amongst other patient groups,0.40 L/h and 0.46 L/h
same,AUC24 typically observed,typically observed for caspofungin,100000 ng·h/mL
same,protein bound,[1],92–97%
